{
  "source": "patent US5574068A",
  "about": "“S-nitrosothiols as smooth muscle relaxants and therapeutic uses thereof” (Brigham and Woman's Hospital, priority 1994, dated 1996)",
  "key": {"[1]": {"system": "guinea pig tracheal rings", "test": "Airway bioassay: relaxation of contracted guinea pig tracheal rings (isometric tension)", "type": "cell-based", "settings": "for inhibition of relaxation responses to SNOAC: airways contracted with 3 uM histamine, 10^-5 M and 10^-4 M methylene blue; for inhibition of relaxation responses to SNOAC / attenuation of the actions (relaxation) of SNOAC: 10^-4 M hemoglobin; for attenuation of the actions (relaxation) of SNOAC: guinea pig airways, 10^-5 and 10^-4 M methylene blue; for IC50: Cavia porcellus, guinea pig tracheal rings contracted with 3 μM histamine, mean ± S.D., read-out: Inhibitory Concentrations Inducing 50% Relaxation (IC50)", "text": "(§1) Male Hartley guinea pigs (500-600 g) were anesthetized by inhalation of enflurane to achieve a surgical plane of anesthesia. The trachea were excised and placed in Kreb's-Henseleit buffer (mM): NaCl 118, CKl 5.4, NaH2 PO4 1.01, glucose 11.1, NaHCO3 25.0, MgSO4 0.69, CaCl 2.32, pH 7.4. The airways were then dissected free from surrounding fat and connective tissue and cut into rings 2-4 mm in diameter. The trachea rings were placed in sterile Medium 199 containing 1% antibiotic/antimycotic mixture in an atmosphere of 5% CO2, 45% O2, […], and kept for up to 48 hours in tissue culture. The experiments were also performed on human airway smooth muscle, isolated by the same method.\n(§2) Trachea and aortic rings were mounted on stirrups and connected to transducers (model FOT3C Grass) with which changes in isometric tension were measured. Rings were then suspended in 10 cc of oxygenareal (95% O2, 5% CO2) buffer. Conditions for both the vessel and airway bioassays were established according to standard methodologies as described in Cooke et al., Am. J. Physiol. 259(3):H804-H812 (1990).\n(§3) In airway experiments, the tings were equilibrated for 60 minutes under a load of 1 gm and then primed twice by exposure to 100 μmethacholine. Tissues were contracted with various agonists at concentrations determined to generate 50% (±16% S.D.) of maximum tone, after which the effects of different thiols and their S-nitrosylated derivatives were assessed. In selected experiments, relaxation responses were determined in the presence of hemoglobin, or after rings had been preexposed to methylene blue for 30 minutes.\nDose-response relationships to SNOAC were obtained in airways contracted with 3 uM histamine, and repeated in the presence of 10^-4 M hemoglobin, 10^-5 M methylene blue, and 10^-4 M methylene blue. […] Cyclic GMP determinations were performed in duplicate for each experiment."}, "[2]": {"system": "human airway smooth muscle", "test": "Airway bioassay: relaxation of contracted human tracheal/airway rings", "type": "cell-based", "settings": "for inhibition of S-nitrosothiol (SNOAC)-induced relaxation in human airways: methylene blue 10^-4, LY83583 5×10^-5, hemoglobin 100 μM; for relaxant effect on human trachea, comparison with other agents: human tracheal rings, FIGS. 11-14; for IC50: human airways 5-12 mm outer diameter, contracted with methacholine (7 μM); for IC50 compared with theophylline: human airways contracted with methacholine (7 μM)", "text": "as §1, §2, §3\n(§4) The effect of guanylate cyclase inhibitors upon S-nitrosothiol-induced airway relaxation and cGMP increase was assessed, using the previously described bioassay and cyclic nucleotide assay procedures. Bronchodilator effects of S-NOGSH and SNOAC were examined in human airways (5-12 mm outer diameter)."}, "[3]": {"test": "Stability in the presence of oxygen and redox metals", "type": "physicochemical", "settings": "95% O2, pH 7.4", "procedure": "The stability of SNOAC and SNOGSH in the presence of oxygen and redox metals was assessed.\nIn addition, S-nitrosothiol stability was assessed in the presence of various redox metals or chelating agents. These compounds were resistant to decomposition when Cu^+, Fe^2+, or Cu^2+ (50 μM) or defuroxamine or EDTA S-nitrosothiols are not rapidly inactivated in the presence of oxygen, nor do they decompose in the presence of redox metals."}, "[4]": {"target": "T1, hemoglobin (Bos taurus, UniProt P01966+P02070)", "T1 construct": "purchased Sigma Chemical Co., St. Louis, Mo", "T1 sequence (P02070 whole entry)": "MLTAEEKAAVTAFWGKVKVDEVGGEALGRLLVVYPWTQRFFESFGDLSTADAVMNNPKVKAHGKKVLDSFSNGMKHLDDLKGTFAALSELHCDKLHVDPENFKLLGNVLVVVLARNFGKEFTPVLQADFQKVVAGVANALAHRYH", "T1 sequence (P01966 2-142 limits assumed)": "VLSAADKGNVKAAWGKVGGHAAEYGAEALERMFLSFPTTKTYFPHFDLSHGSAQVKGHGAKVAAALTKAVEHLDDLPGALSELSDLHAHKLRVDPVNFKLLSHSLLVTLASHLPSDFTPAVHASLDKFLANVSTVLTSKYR", "test": "Reaction of S-nitrosothiol with hemoglobin (UV spectrum, oxygen association curve)", "type": "biochemical, bovine", "settings": "SNOAC over 15 minutes, NO from NaNO2 in 0.5N HCl", "procedure": "Additional experiments were conducted to evaluate the reaction between S-nitrosothiols and hemoglobin. […] S-nitrosylation was verified, using standard methods for detection of S-nitrosothiols (Saville, Analyst 83:670-672 (1958)). The Saville method, which assays free NOx in solution, involves a diazotization reaction with sulfanilamide and subsequent coupling with the chromophore N-(1-naphthyl)ethylenediamine. The specificity for S-nitrosothiols derives from assay determinations performed in the presence and absence of HgCl2, the latter reagent catalyzing the hydrolysis of the S--NO bond.\nFor the purposes of comparison, equimolar concentrations of hemoglobin and NaNO2 were reacted in 0.5N HCl, to form nitrosyl-hemoglobin, and the UV spectrum was obtained.\nThus, the reaction between S-nitrosothiols and hemoglobin not only eliminates the inhibition of oxygen binding which occurs from the reaction with NO.cndot., but actually increases binding and oxygenation of the blood."}, "[5]": {"system": "cyclic GMP (guanylate cyclase) in tracheal rings", "test": "Cyclic GMP radioimmunoassay in guinea pig tracheal rings", "type": "cell-based", "procedure": "(§5) The mechanism by which S-nitrosothiols relax vascular smooth muscle is felt to be through activation of guanylate cyclase with consequent increase in intracellular cyclic GMP (Ignarro et al., Circ. Res. 65:1-21 (1989); Loscalzo et al., J. Pharmacol. Exp. Ther. 249(3):726-729 (1989)). In order to assess this mechanism in airways, tracheal rings in Kreb's-Henseleit solution were exposed to 100 μM S-nitroso-N-acetylcysteine (SNOAC) for 90 seconds. Reactions were terminated by the addition of ice cold 10% trichloracetic acid and rapid freezing in ethanol-saturated dry ice.\n(§6) In selected experiments, rings were preexposed to the guanylate cyclase inhibitor, methylene blue (10^-4 M) for 30 minutes. Tissues were then individually pulverized with a glass (s) homogenizer and centrifuged at 8000 g for 5 minutes. The clear supernatant was extracted with water-saturated ether and assayed for cyclic GMP by radioimmunoassay. Acetylation of samples with acetic anhydride was used to increase the sensitivity of the assay and the determination of recoveries was aided by the use of [^3 H] cyclic GMP."}, "[6]": {"system": "cGMP in human airways", "test": "Cyclic GMP radioimmunoassay in human airways", "type": "cell-based", "procedure": "as §5, §6, §4"}, "[7]": {"system": "gastrointestinal smooth muscle (Sphincter of Oddi, duodenum, colon)", "test": "Patient studies: topical administration during endoscopy, gastrointestinal smooth muscle motility", "type": "in vivo, human", "settings": "patients", "text": "Patient studies, conducted by the inventors, have measured the efficacy of S-nitrosothiols both in facilitating cannulation of the sphincter of Oddi, and in decreasing colon motility to allow for removal of colon polyps. […] The same type of effects would occur with the use of other cell impermeable S-nitrosothiols, such as S-nitroso-glutathione."}, "[8]": {"settings": "cited from earlier work"}},
  "note": "Entries after “also recorded” stand apart in the source; their conditions may differ.",
  "data": [
    {"molecule": "hemoglobin: hemoglobin (bovine), established inhibitor of NO-induced relaxations", "values": [
      {"measurement": "inhibition of relaxation responses to SNOAC", "setting": "[1]", "result": "inhibited"},
      {"measurement": "attenuation of the actions (relaxation) of SNOAC", "setting": "[1]", "result": "10-20%"},
      {"measurement": "inhibition of S-nitrosothiol (SNOAC)-induced relaxation in human airways", "setting": "[2]", "result": "neither hemoglobin or methylene blue attenuated the relaxation effect; also recorded: had little effect"}
    ]},
    {"molecule": "CC(=O)N[C@@H](CS)C(=O)O", "note": "[N-acetylcysteine, reference compound]", "values": [
      {"measurement": "relaxant effect on human trachea, comparison with other agents", "setting": "[2]", "result": "caused significant constriction of the tracheal smooth muscle"}
    ]},
    {"molecule": "N[C@@H](CSN=O)C(=O)O", "note": "[S-nitroso-cysteine]", "values": [
      {"measurement": "IC50", "setting": "[1]", "result": "3.2 ± 0.2", "unit": "µM"}
    ]},
    {"molecule": "[N]=O", "note": "[NO, nitric oxide, reference compound]", "values": [
      {"measurement": "half life", "setting": "[3]", "result": "on the order of seconds"},
      {"measurement": "reaction at the redox metal (iron-binding) site of hemoglobin", "setting": "[4]", "result": "reacted instantaneously with the redox metal site on hemoglobin"}
    ]},
    {"molecule": "CC(=O)N[C@@H](CSN=O)C(=O)O", "note": "[S-nitroso-N-acetylcysteine]", "values": [
      {"measurement": "persistence of relaxation", "setting": "[1]; 5×10^-6 M, at one hour", "result": "significant residual loss of tone was still evident at one hour"},
      {"measurement": "time to maximal relaxation", "setting": "[1]; 5×10^-6 M, followed over 60 minutes", "result": "maximal relaxation occurred by five minutes"},
      {"measurement": "IC50", "setting": "[1]", "result": "2.1 ± 0.8", "unit": "µM"},
      {"measurement": "relaxant activity of SNOAC relative to SNOCAP", "setting": "[1]; contractions induced by leukotriene D4, histamine, methacholine, in every case", "result": "approximately 10 fold"},
      {"measurement": "relaxant activity relative to theophylline", "setting": "[1]; identical study conditions, FIG. 8", "result": "approximately 50 times"},
      {"measurement": "IC50", "setting": "[2]", "result": 22, "unit": "µM"},
      {"measurement": "IC50 compared with theophylline", "setting": "[2]", "result": "approximately two orders of magnitude greater than theophylline"},
      {"measurement": "relaxant effect on human trachea, comparison with other agents", "setting": "[2]; listed as SNOAC", "result": "significantly greater than that of N-acetylcysteine; also recorded: significantly more potent than that of theophylline; also recorded: compares favorably with that exerted by isoproterenol"},
      {"measurement": "increase in cyclic GMP over basal levels (control)", "setting": "[5]; guinea pig tracheal rings, 100 μM SNOAC, 90 seconds", "result": 4, "unit": "fold"},
      {"measurement": "increase in cyclic GMP over basal levels (control)", "setting": "[6]; human airways incubated with SNOAC", "result": 4, "unit": "fold"},
      {"measurement": "cGMP", "setting": "[6]; human airways, Table 3", "result": "46 ± 17", "unit": "Pmol/gm"},
      {"measurement": "duration and reversibility of relaxant effects", "setting": "[7]", "result": "temporary (lasting only for the duration of the procedure), completely reversible"},
      {"measurement": "systemic blood pressure, heart rate, oxygen saturation", "setting": "[7]", "result": "produced no change in systemic blood pressure, heart rate or oxygen saturation"},
      {"measurement": "colon motility", "setting": "[7]; removal of colon polyps", "result": "eliminated colon motility"},
      {"measurement": "duodenal motility", "setting": "[7]; topical administration", "result": "eliminated duodenal motility"},
      {"measurement": "contractile activity of the Sphincter of Oddi", "setting": "[7]; topical administration, endoscopic cannulation", "result": "inhibited the contractile activity of the Sphincter of Oddi"},
      {"measurement": "half life", "setting": "[3]", "result": "on the order of hours"},
      {"measurement": "reaction at the redox metal (iron-binding) site of hemoglobin", "setting": "[4]", "result": "no reaction at the redox metal (iron-binding site) of hemoglobin"}
    ]},
    {"molecule": "CC(C)NCC(O)c1ccc(O)c(O)c1", "note": "(stereo not shown) [isoproterenol, reference compound]", "values": [
      {"measurement": "rank of relaxant activity among SNOAC, isoproterenol, theophylline", "setting": "[1]; FIG. 8", "result": "most active relaxant"}
    ]},
    {"molecule": "CN(C)c1ccc2nc3ccc(=[N+](C)C)cc-3sc2c1", "note": "[methylene blue, reference compound]", "values": [
      {"measurement": "inhibition of relaxation responses to SNOAC", "setting": "[1]", "result": "in a dose-dependent manner"},
      {"measurement": "attenuation of the actions (relaxation) of SNOAC", "setting": "[1]", "result": "10-20%"},
      {"measurement": "inhibition of S-nitrosothiol (SNOAC)-induced relaxation in human airways", "setting": "[2]", "result": "neither hemoglobin or methylene blue attenuated the relaxation effect; also recorded: not significantly inhibited"},
      {"measurement": "effect on SNOAC-induced increase in cyclic GMP", "setting": "[5]; pretreatment with methylene blue 10^-4 M, 30 minutes", "result": "attenuated"}
    ]},
    {"molecule": "N[C@@H](CCSN=O)C(=O)O", "note": "[S-nitroso-homocysteine]", "values": [
      {"measurement": "IC50", "setting": "[1]", "result": "2.1 ± 0.3", "unit": "µM"}
    ]},
    {"molecule": "Cn1c(=O)c2[nH]cnc2n(C)c1=O", "note": "[theophylline]", "values": [
      {"measurement": "plasma concentration at which unacceptable symptoms of toxicity usually appear", "setting": "[8]", "result": "≥ 20000", "unit": "ng/mL"}
    ]},
    {"molecule": "C[C@H](CSN=O)C(=O)N1CCC[C@H]1C(=O)O", "note": "[S-nitroso-captopril]", "values": [
      {"measurement": "IC50", "setting": "[1]", "result": "20 ± 0.7", "unit": "µM"}
    ]},
    {"molecule": "N[C@@H](CCC(=O)N[C@@H](CSN=O)C(=O)NCC(=O)O)C(=O)O", "note": "[S-nitroso-glutathione]", "values": [
      {"measurement": "IC50", "setting": "[1]", "result": "0.99 ± 2", "unit": "µM"},
      {"measurement": "IC50", "setting": "[2]", "result": 22, "unit": "µM"},
      {"measurement": "IC50 compared with theophylline", "setting": "[2]", "result": "approximately two orders of magnitude greater than theophylline"},
      {"measurement": "relaxant effect on human trachea, comparison with other agents", "setting": "[2]", "result": "significantly greater than nitrite (NO2)"},
      {"measurement": "relaxant effect on human trachea, comparison with other agents", "setting": "[2]; listed as S-nitrosoglutathione", "result": "significantly greater than glutathione alone"},
      {"measurement": "relaxant effect on human trachea, comparison with other agents", "setting": "[2]; listed as SNOGSH", "result": "significantly more potent than that of theophylline; also recorded: compares favorably with that exerted by isoproterenol"},
      {"measurement": "half life", "setting": "[3]", "result": "on the order of hours"}
    ]}
  ]
}
